Legend:
[1] = biological target: Protein-tyrosine kinase 2-beta (Homo sapiens) (UniProt Q14289); details: Compound concentration 1000.0 nM
[2] = biological target: T1, D(4) dopamine receptor (Homo sapiens) (UniProt P21917); details: Compound concentration 10.0 uM
T1 sequence (whole entry): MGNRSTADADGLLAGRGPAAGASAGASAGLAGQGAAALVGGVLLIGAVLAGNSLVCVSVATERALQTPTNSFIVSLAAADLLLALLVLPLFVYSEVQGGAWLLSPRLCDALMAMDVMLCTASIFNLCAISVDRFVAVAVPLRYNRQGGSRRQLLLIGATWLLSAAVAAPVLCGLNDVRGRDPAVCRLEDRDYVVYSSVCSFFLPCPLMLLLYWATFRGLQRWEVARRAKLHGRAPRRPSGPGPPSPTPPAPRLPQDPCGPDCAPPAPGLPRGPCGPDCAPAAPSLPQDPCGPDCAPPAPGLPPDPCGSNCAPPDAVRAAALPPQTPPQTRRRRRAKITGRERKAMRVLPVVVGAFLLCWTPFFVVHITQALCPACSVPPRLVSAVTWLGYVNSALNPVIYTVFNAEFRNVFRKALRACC

[3] = biological target: 3-phosphoinositide-dependent protein kinase 1 (Homo sapiens) (UniProt O15530); details: Compound concentration 1000.0 nM
[4] = biological target: Serine/threonine-protein kinase Sgk1 (Homo sapiens) (UniProt O00141); details: Compound concentration 1000.0 nM
Serine/threonine-protein kinase Sgk1 (Homo sapiens), sequence (O00141 whole entry): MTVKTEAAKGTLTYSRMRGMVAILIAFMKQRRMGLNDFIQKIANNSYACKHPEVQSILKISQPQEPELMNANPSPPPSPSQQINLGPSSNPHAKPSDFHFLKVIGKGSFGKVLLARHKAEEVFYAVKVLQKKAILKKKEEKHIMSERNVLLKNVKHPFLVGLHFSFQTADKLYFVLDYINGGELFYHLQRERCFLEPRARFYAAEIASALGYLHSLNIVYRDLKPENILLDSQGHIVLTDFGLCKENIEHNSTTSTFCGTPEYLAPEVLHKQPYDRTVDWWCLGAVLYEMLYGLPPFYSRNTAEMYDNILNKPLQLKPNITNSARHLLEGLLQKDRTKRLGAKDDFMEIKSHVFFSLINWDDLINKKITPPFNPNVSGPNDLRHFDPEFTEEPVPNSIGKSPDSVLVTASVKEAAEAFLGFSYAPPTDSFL

[5] = biological target: Mitogen-activated protein kinase 4 (Homo sapiens) (UniProt P31152); details: Compound concentration 1000.0 nM
[6] = biological target: Serine/threonine-protein kinase WNK2 (Homo sapiens) (UniProt Q9Y3S1); details: Compound concentration 1000.0 nM
[7] = biological target: Mitogen-activated protein kinase kinase kinase 14 (Homo sapiens) (UniProt Q99558); details: Compound concentration 1000.0 nM
[8] = biological target: Homeodomain-interacting protein kinase 2 (Homo sapiens) (UniProt Q9H2X6); details: Compound concentration 1000.0 nM
[9] = biological target: Death-associated protein kinase 3 (Homo sapiens) (UniProt O43293); details: Compound concentration 1000.0 nM
[10] = biological target: Homeodomain-interacting protein kinase 4 (Homo sapiens) (UniProt Q8NE63); details: Compound concentration 1000.0 nM
Homeodomain-interacting protein kinase 4 (Homo sapiens), sequence (Q8NE63 whole entry): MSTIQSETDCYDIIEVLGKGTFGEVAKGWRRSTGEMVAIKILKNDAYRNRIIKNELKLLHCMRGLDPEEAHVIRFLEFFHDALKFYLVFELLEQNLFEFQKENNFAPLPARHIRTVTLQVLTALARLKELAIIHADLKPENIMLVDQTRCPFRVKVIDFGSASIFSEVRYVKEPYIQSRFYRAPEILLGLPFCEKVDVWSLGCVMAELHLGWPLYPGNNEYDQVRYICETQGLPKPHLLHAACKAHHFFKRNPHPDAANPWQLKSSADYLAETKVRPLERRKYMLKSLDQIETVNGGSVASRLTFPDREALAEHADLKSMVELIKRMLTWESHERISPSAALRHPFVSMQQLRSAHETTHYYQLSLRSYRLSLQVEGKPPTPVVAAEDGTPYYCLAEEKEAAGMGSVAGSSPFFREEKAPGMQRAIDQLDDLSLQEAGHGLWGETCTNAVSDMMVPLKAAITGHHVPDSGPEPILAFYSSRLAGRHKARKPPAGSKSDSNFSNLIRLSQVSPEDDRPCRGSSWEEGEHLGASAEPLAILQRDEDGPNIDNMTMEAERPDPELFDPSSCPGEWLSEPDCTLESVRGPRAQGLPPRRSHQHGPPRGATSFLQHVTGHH

[11] = biological target: Serine/threonine-protein kinase PAK 3 (Homo sapiens) (UniProt O75914); details: Compound concentration 1000.0 nM
Serine/threonine-protein kinase PAK 3 (Homo sapiens), sequence (O75914 whole entry, looked up): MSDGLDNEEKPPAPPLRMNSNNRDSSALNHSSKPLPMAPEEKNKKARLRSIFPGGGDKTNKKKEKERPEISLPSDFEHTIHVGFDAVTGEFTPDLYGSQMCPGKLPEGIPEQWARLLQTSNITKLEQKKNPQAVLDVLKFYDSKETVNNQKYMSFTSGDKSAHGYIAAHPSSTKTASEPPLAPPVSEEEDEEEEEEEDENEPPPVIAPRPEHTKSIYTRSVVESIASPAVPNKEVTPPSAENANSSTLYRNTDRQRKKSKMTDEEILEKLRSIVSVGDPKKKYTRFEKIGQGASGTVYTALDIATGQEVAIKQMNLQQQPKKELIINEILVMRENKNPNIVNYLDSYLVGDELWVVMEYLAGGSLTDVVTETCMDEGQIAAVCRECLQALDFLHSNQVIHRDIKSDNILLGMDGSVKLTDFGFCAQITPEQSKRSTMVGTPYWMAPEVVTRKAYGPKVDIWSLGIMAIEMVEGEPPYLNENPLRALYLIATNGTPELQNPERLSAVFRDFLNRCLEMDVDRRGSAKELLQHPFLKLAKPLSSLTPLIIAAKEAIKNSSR

[12] = biological target: Serine/threonine-protein kinase SIK3 (Homo sapiens) (UniProt Q9Y2K2); details: Compound concentration 1000.0 nM
[13] = biological target: Myosin light chain kinase, smooth muscle (Homo sapiens) (UniProt Q15746); details: Compound concentration 1000.0 nM
[14] = biological target: Mitogen-activated protein kinase kinase kinase 3 (Homo sapiens) (UniProt Q99759); details: Compound concentration 1000.0 nM
[15] = biological target: Mitogen-activated protein kinase kinase kinase 20 (Homo sapiens) (UniProt Q9NYL2); details: Compound concentration 1000.0 nM
Mitogen-activated protein kinase kinase kinase 20 (Homo sapiens), sequence (Q9NYL2 2-800 limits assumed): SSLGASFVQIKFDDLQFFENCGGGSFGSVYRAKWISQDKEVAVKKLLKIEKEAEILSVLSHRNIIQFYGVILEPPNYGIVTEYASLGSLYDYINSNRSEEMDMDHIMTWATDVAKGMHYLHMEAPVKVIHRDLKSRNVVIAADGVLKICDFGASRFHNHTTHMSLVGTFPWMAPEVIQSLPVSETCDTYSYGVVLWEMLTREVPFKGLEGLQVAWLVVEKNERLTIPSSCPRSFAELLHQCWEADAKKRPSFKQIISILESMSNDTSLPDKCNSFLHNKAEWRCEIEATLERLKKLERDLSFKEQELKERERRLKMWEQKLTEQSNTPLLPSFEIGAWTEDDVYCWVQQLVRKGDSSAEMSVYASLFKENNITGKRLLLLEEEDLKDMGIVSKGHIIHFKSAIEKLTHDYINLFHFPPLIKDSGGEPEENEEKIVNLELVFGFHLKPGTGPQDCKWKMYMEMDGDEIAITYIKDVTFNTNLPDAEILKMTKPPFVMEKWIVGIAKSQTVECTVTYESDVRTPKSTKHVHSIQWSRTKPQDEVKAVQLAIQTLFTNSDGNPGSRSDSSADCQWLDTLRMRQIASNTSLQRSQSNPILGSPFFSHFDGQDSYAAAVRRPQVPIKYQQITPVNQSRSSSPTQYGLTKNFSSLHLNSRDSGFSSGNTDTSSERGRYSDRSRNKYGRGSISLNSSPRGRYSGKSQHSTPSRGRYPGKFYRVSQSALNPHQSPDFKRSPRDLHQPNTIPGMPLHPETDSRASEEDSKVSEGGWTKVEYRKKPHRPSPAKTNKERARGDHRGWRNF

[16] = biological target: Ephrin type-B receptor 1 (Homo sapiens) (UniProt P54762); details: Compound concentration 1000.0 nM
[17] = biological target: SRSF protein kinase 2 (Homo sapiens) (UniProt P78362); details: Compound concentration 1000.0 nM
SRSF protein kinase 2 (Homo sapiens), sequence (P78362 whole entry, looked up): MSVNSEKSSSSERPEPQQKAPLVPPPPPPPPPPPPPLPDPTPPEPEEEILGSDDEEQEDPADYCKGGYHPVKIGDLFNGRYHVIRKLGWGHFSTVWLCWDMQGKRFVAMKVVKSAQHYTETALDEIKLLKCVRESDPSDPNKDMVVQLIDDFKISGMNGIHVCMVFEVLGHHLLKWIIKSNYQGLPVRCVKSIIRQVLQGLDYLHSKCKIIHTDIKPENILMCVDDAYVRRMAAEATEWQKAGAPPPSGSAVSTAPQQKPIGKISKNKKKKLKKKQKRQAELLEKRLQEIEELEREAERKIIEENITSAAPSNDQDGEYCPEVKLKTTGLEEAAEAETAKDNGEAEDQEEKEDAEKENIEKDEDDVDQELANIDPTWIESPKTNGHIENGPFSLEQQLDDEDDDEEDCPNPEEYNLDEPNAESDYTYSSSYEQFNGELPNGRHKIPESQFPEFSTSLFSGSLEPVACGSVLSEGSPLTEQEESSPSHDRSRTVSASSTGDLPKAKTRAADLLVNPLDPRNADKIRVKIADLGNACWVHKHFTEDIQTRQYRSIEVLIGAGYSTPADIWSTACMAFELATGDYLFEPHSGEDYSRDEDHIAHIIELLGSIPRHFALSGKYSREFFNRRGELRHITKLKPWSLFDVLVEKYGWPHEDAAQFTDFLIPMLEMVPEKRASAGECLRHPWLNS

[18] = biological target: Serine/threonine-protein kinase PAK 1 (Homo sapiens) (UniProt Q13153); details: Compound concentration 1000.0 nM
Serine/threonine-protein kinase PAK 1 (Homo sapiens), sequence (Q13153 whole entry): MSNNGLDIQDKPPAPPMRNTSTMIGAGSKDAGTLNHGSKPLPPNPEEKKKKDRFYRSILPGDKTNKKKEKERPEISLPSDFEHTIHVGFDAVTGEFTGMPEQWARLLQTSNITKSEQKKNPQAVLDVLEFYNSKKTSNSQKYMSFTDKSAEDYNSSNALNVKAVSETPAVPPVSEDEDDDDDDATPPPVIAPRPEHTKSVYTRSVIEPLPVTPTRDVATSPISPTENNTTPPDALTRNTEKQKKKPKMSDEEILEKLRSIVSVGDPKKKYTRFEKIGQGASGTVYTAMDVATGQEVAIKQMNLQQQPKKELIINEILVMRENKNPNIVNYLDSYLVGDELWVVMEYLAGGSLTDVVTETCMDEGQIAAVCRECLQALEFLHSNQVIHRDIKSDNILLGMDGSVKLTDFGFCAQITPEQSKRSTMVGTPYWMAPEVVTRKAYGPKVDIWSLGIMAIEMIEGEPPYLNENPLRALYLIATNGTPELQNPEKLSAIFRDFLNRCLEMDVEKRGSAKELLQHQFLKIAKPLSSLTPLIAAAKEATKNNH

[19] = biological target: Tyrosine-protein kinase JAK3 (Homo sapiens) (UniProt P52333); details: Compound concentration 1000.0 nM
[20] = biological target: Histamine H1 receptor (Homo sapiens) (UniProt P35367); details: Compound concentration 10.0 uM
[21] = biological target: Dual specificity mitogen-activated protein kinase kinase 2 (Homo sapiens) (UniProt P36507); details: Compound concentration 1000.0 nM
[22] = biological target: Glycogen synthase kinase-3 alpha (Homo sapiens) (UniProt P49840); details: Compound concentration 1000.0 nM
[23] = biological target: cGMP-dependent protein kinase 2 (Homo sapiens) (UniProt Q13237); details: Compound concentration 1000.0 nM
[24] = biological target: Serine/threonine-protein kinase N1 (Homo sapiens) (UniProt Q16512); details: Compound concentration 1000.0 nM
[25] = biological target: Inhibitor of nuclear factor kappa-B kinase subunit alpha (Homo sapiens) (UniProt O15111); details: Compound concentration 1000.0 nM
[26] = biological target: RAF proto-oncogene serine/threonine-protein kinase (Homo sapiens) (UniProt P04049); details: Compound concentration 1000.0 nM
[27] = biological target: Interleukin-1 receptor-associated kinase 4 (Homo sapiens) (UniProt Q9NWZ3); details: Compound concentration 1000.0 nM
[28] = biological target: Serine/threonine-protein kinase SIK1 (Homo sapiens) (UniProt P57059); details: Compound concentration 1000.0 nM
[29] = biological target: TRAF2 and NCK-interacting protein kinase (Homo sapiens) (UniProt Q9UKE5); details: Compound concentration 1000.0 nM
[30] = system: Phosphatidylinositol 4,5-bisphosphate 3-kinase catalytic subunit alpha isoform (Homo sapiens), P42336 [I800L]; details: Compound concentration 1000.0 nM
[31] = biological target: Angiopoietin-1 receptor (Homo sapiens) (UniProt Q02763); details: Compound concentration 1000.0 nM
[32] = biological target: Atypical kinase COQ8B, mitochondrial (Homo sapiens) (UniProt Q96D53); details: Compound concentration 1000.0 nM
[33] = biological target: RAC-alpha serine/threonine-protein kinase (Homo sapiens) (UniProt P31749); details: Compound concentration 1000.0 nM
[34] = biological target: Serine/threonine-protein kinase NLK (Homo sapiens) (UniProt Q9UBE8); details: Compound concentration 1000.0 nM
[35] = system: Tyrosine-protein kinase ABL1 (Homo sapiens), P00519 [F317I]; details: Compound concentration 1000.0 nM
[36] = biological target: Dual specificity protein kinase CLK2 (Homo sapiens) (UniProt P49760); details: Compound concentration 1000.0 nM
Dual specificity protein kinase CLK2 (Homo sapiens), sequence (P49760 whole entry, looked up): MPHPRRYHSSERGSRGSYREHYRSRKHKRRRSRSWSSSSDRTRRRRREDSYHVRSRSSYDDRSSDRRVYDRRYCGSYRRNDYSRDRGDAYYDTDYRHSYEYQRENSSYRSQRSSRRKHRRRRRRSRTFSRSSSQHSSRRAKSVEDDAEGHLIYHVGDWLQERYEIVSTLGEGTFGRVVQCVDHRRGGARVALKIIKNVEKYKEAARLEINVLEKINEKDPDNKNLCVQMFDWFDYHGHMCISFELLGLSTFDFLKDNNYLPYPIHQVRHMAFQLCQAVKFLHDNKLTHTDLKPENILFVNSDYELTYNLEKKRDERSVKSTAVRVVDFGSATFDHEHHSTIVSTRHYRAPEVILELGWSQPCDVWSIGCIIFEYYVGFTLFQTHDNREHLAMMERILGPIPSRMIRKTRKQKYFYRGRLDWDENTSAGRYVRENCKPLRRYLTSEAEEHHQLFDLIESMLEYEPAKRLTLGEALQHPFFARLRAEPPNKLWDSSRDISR

[37] = biological target: Tyrosine-protein kinase FRK (Homo sapiens) (UniProt P42685); details: Compound concentration 1000.0 nM
Tyrosine-protein kinase FRK (Homo sapiens), sequence (P42685 whole entry): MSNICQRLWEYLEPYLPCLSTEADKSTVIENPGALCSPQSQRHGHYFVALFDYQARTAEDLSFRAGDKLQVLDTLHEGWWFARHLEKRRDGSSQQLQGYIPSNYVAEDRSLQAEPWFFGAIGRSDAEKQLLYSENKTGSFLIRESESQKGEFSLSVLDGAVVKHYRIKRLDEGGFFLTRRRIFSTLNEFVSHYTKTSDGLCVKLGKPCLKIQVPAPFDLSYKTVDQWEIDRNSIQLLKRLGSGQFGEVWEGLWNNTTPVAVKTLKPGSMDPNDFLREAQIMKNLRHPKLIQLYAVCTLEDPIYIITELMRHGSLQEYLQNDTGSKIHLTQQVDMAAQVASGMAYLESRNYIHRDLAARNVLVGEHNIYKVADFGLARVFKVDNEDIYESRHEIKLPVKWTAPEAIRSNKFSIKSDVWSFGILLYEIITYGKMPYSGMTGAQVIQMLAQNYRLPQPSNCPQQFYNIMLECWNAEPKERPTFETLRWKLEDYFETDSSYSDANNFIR

[38] = biological target: SNF-related serine/threonine-protein kinase (Homo sapiens) (UniProt Q9NRH2); details: Compound concentration 1000.0 nM
[39] = biological target: Inhibitor of nuclear factor kappa-B kinase subunit epsilon (Homo sapiens) (UniProt Q14164); details: Compound concentration 1000.0 nM

C[C@H](NC(=O)c1cnc2n1[C@](C)(Cc1ccc(C#N)cc1)C(=O)N2c1cc(Cl)c(F)c(Cl)c1)C(=O)NC1(c2ccccn2)CC1 [BI 1950]
inactive: residual activity [1] 100% | inhibition [2] -2.68% | residual activity [3] 100% | residual activity [4] 100% | residual activity [5] 100% | residual activity [6] 100% | residual activity [7] 100% | residual activity [8] 100% | residual activity [9] 97% | residual activity [10] 100% | residual activity [11] 100% | residual activity [12] 76% | residual activity [13] 100% | residual activity [14] 100% | residual activity [15] 100% | residual activity [16] 85% | residual activity [17] 100% | residual activity [18] 95% | residual activity [19] 100% | inhibition [20] 3.2% | residual activity [21] 90% | residual activity [22] 100% | residual activity [23] 85% | residual activity [24] 100% | residual activity [25] 100% | residual activity [26] 100% | residual activity [27] 100% | residual activity [28] 100% | residual activity [29] 100% | residual activity [30] 100% | residual activity [31] 91% | residual activity [32] 100% | residual activity [33] 100% | residual activity [34] 100% | residual activity [35] 78% | residual activity [36] 97% | residual activity [37] 68% | residual activity [38] 100% | residual activity [39] 89%

C[C@@]1(Cc2ccc(C#N)cc2)C(=O)N(c2cc(Cl)cc(Cl)c2)c2ncc(C(=O)NC3(c4nc(C5CCC5)no4)CC3)n21 [BI 9446]
inactive: residual activity [1] 100% | inhibition [2] 13.6% | residual activity [3] 100% | residual activity [4] 100% | residual activity [5] 100% | residual activity [6] 100% | residual activity [7] 100% | residual activity [8] 100% | residual activity [9] 94% | residual activity [10] 100% | residual activity [11] 100% | residual activity [12] 98% | residual activity [13] 100% | residual activity [14] 100% | residual activity [15] 100% | residual activity [16] 87% | residual activity [17] 100% | residual activity [18] 99% | residual activity [19] 100% | inhibition [20] 10.3% | residual activity [21] 99% | residual activity [22] 100% | residual activity [23] 100% | residual activity [24] 100% | residual activity [25] 100% | residual activity [26] 100% | residual activity [27] 100% | residual activity [28] 100% | residual activity [29] 100% | residual activity [30] 88% | residual activity [31] 92% | residual activity [32] 100% | residual activity [33] 100% | residual activity [34] 100% | residual activity [35] 96% | residual activity [36] 100% | residual activity [37] 81% | residual activity [38] 100% | residual activity [39] 80%

— ChEMBL document CHEMBL4507282, “Data for DCP probe BI-1950” (2021)
